According to paper PMC6516043, “Functional Analysis of the Chemosensory Protein GmolCSP8 From the Oriental Fruit Moth, Grapholita molesta (Busck) (Lepidoptera: Tortricidae)” (Frontiers in Physiology, 2019):
Read-outs that look alike come from different tables or passages of the source.

Tests used:
[1] = target: rGmolCSP8 (Grapholita molesta, UniProt A0A0M4FML8); experiment: Fluorescence competitive binding assay (1-NPN displacement), wild-type; settings: for IC50: 20 mM Tris-HCl pH 7.4, read-out: IC50
Protocol: The fluorescence spectra were recorded using a fluorescence spectrophotometer (F-4500, Hitachi, Tokyo, Japan) in a 1 cm light path fluorimeter quartz cuvette with 10 nm slits for excitation and 20 nm slits for emission. […] The fluorescent probe N-phenyl-1-naphthylamine (1-NPN) and all putative ligands used in binding assays were dissolved in methanol (HPLC purity grade) to obtain a 1 mM stock solution. The rGmolCSP8 protein was diluted to in 20 mM Tris–HCl to obtain a 2 μM solution, pH 7.4. […] The fluorescent probe was excited at 337 nm and emission spectra were recorded from 370 to 550 nm. […] Binding data were obtained from three replicates assays for each concentration of each tested ligand.

[2] = target: GmolGOBP2; set-up: method as in Li et al., 2016a,b; settings: ref Li et al., 2016a,b; cited from earlier work
[3] = target: GmolOBP8; set-up: method as in Li et al., 2016a,b; settings: ref Li et al., 2016a,b; cited from earlier work
[4] = target: GmolOBP15; set-up: method as in Li et al., 2016a,b; settings: ref Li et al., 2016a,b; cited from earlier work
[5] = target: GmolCSP8-L30A (Grapholita molesta, UniProt A0A0M4FML8, L45A); experiment: biochemical; assay type: binding
Protocol: (§1) To determine whether GmolCSP8 is involved in odorant binding, fluorescence competitive binding assays were performed ([Zhong et al., 2012]). The fluorescence spectra were recorded using a fluorescence spectrophotometer (F-4500, Hitachi, Tokyo, Japan) in a 1 cm light path fluorimeter quartz cuvette with 10 nm slits for excitation and 20 nm slits for emission. The selected chemicals are listed in Table 2, and included four sex pheromone components and 34 volatiles from different host plants (peach and pear trees) of G. molesta based on previous investigations ([Natale et al., 2004]; [Lu et al., 2012]; [Najar-Rodriguez et al., 2013b]). The fluorescent probe N-phenyl-1-naphthylamine (1-NPN) and all putative ligands used in binding assays were dissolved in methanol (HPLC purity grade) to obtain a 1 mM stock solution. The rGmolCSP8 protein was diluted to in 20 mM Tris–HCl to obtain a 2 μM solution, pH 7.4. To measure the binding affinity of 1-NPN for GmolCSP8, a 2 μM solution of protein was titrated with aliquots of 1 mM 1-NPN prepared to final concentrations ranging from 1 to 22 μM. The fluorescent probe was excited at 337 nm and emission spectra were recorded from 370 to 550 nm. […] Binding data were obtained from three replicates assays for each concentration of each tested ligand. Dissociation constants (Kd) of protein to 1-NPN were calculated by non-linear regression, using GraphPad Prism 4.00 software (GraphPad Software Inc.). The inhibition constants (Ki) of the competitors were determined using the corresponding IC50 values (concentration of competitor that reduced the initial fluorescence intensity by half) based on the following equation: Ki = [IC50]/(1+[1-NPN]/K1-NPN), where [1-NPN] is the free concentration of 1-NPN and K1-NPN is the dissociation constant of the complex GmolCSP8/1-NPN.
(§2) To verify the four predicted key amino acid sites of GmolCSP8 binding for 1-hexanol, recombinant plasmids for four CSP8 mutants were obtained via site-directed mutagenesis experiments. Specific primers introducing mutation sites of the four key amino acid CSP8 plasmids (GmolCSP8-T27A, GmolCSP8-L30A, GmolCSP8-V40A, and GmolCSP8-L80A) were designed and are listed in Table 1. The four mutants were mutated by using the TaKaRa MutanBEST Kit (TaKaRa, Shiga, Japan) with the pMD®19-T/GmolCSP8 plasmid DNA as template. All plasmids containing mutations were validated by sequencing with five randomly selected single colonies. pMD®19-T plasmids including four CSP8 mutants were digested with Bam HI and Hind III restriction enzymes. Then, the target sequences were ligated into the expression vector pET28a (+) and transformed into BL21 (DE3) competent cells for expression. After sequencing verification, the corresponding rGmolCSP8 mutant proteins were induced and purified, and the binding affinities to 1-hexanol and its analogs were verified via ligand-binding assays according to the method described above.

[6] = target: GmolCSP8-T27A (Grapholita molesta, UniProt A0A0M4FML8, T42A); experiment: biochemical; assay type: binding
Protocol: as §1, §2

[7] = target: GmolCSP8-V40A (Grapholita molesta, UniProt A0A0M4FML8, V55A); experiment: biochemical; assay type: binding
Protocol: as §1, §2

[8] = target: GmolCSP8-L80A (Grapholita molesta, UniProt A0A0M4FML8, L95A); experiment: biochemical; assay type: binding
Protocol: as §1, §2

[9] = 2 μM rGmolCSP8 and 2 μM 1-NPN, pH 7.4, calculated from IC50, read-out: Ki

GmolCSP8-T27A, sequence (A0A0M4FML8 entry or part of it T42A): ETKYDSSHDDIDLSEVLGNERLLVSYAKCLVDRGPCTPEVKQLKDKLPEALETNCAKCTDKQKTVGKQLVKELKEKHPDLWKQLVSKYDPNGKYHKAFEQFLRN
rGmolCSP8, sequence (A0A0M4FML8 entry or part of it): as the sequence (A0A0M4FML8 entry or part of it T42A) above, with A27T counted along it
GmolCSP8-L30A, sequence (A0A0M4FML8 entry or part of it L45A): as the sequence (A0A0M4FML8 entry or part of it T42A) above, with A27T, L30A counted along it
GmolCSP8-L80A, sequence (A0A0M4FML8 entry or part of it L95A): as the sequence (A0A0M4FML8 entry or part of it T42A) above, with A27T, L80A counted along it
GmolCSP8-V40A, sequence (A0A0M4FML8 entry or part of it V55A): as the sequence (A0A0M4FML8 entry or part of it T42A) above, with A27T, V40A counted along it

| Compound | IC50 ([1]; 2 μM rGmolCSP8 and 2 μM 1-NPN) [µM] | Ki [1, 9] [µM] | further results |
| --- | --- | --- | --- |
| N#Cc1ccccc1 [Benzonitrile] | > 24 | > 24 | binding to rGmolCSP8 (in words) ([1]; wild-type rGmolCSP8, pH 7.4): cannot bind |
| CCC/C=C\CCCCCCCO [(Z)-8-dodecenyl alcohol] | > 24 | > 24 | – |
| CC/C=C\CCOC(C)=O [Cis-3-hexenyl acetate] | > 24 | > 24 | binding to rGmolCSP8 (in words) ([1]; wild-type rGmolCSP8, pH 7.4): cannot bind |
| CC(=O)OCCC(C)C [Isoamyl acetate] | > 24 | > 24 | – |
| CCCCCCOC(C)=O [Hexyl acetate] | > 24 | > 24 | – |
| CCCCCCCCC=O [Nonanal] | > 24 | > 24 | – |
| CCCCOC(=O)CCC [Butyl butyrate] | > 24 | > 24 | – |
| CCCCCCCCCCCCO [1-dodecanol] | 13.5 ± 0.83 | 12.9 ± 0.56 | Ki [2]: 1.22 µM; binding affinity class (strong/medium/weak) ([1]; wild-type rGmolCSP8, pH 7.4): medium (an IC50 value between 10 and 20 μM indicated that ligands demonstrated medium binding ability to protein); Ki [3]: 4.39 µM; Ki [4]: 3.24 µM |
| CCCCCCCCCCCCCCCC [Hexadecane] | > 24 | > 24 | – |
| CCC/C=C/C=O [(E)-2-hexenal] | > 24 | > 24 | binding to rGmolCSP8 (in words) ([1]; wild-type rGmolCSP8, pH 7.4): cannot bind |
| CCCCCCCCCC=O [Decanal] | > 24 | > 24 | – |
| CCCCCCCO [1-heptanol] | 6.79 ± 0.56 | 6.2 ± 0.42 | binding to mutant L30A (in words) ([5]; mutant L30A compared with wild-type): lost its ability to bind; Ki ([5]; read-out: Ki (μM) L30A; mutant L30A; – = lost ability to bind): > 24 µM; Ki [6]: 9.01 ± 0.9 µM; fold decrease in binding vs wild-type ([6]; mutant T27A compared with wild-type rGmolCSP8): 1.5- to 2.0 fold; Ki [7]: 9.68 ± 0.75 µM; Ki [8]: 6.02 ± 0.66 µM |
| CC/C=C\CCO [Cis-3-hexen-1-ol] | 9.14 ± 0.73 | 8.51 ± 0.68 | – |
| CCCCCC(=O)OCC [Ethyl hexanoate] | > 24 | > 24 | – |
| CCCCCC(=O)OCCCC [Butyl hexanoate] | > 24 | > 24 | binding to rGmolCSP8 (in words) ([1]; wild-type rGmolCSP8, pH 7.4): cannot bind |
| CCCCCCC=O [Heptanal] | > 24 | > 24 | binding to rGmolCSP8 (in words) ([1]; wild-type rGmolCSP8, pH 7.4): cannot bind |
| COC(=O)c1ccccc1O [Methyl salicylate] | > 24 | > 24 | – |
| CCCCO [1-butanol] | 7.32 ± 0.56 | 6.65 ± 0.52 | Ki ([1]; Table 3, wild-type rGmolCSP8, read-out: Ki (μM) Wild-Type): 6.65 ± 0.52 µM; Ki ([5]; mutant L30A; – = lost ability to bind; read-out: Ki (μM) L30A): 17.1 ± 1.05 µM; IC50 ([6]; mutant T27A, ligands up to 24 μM, read-out: ligand concentration displacing 50% 1-NPN from CSP8-T27A/1-NPN complex): > 24 µM; Ki ([6]; mutant T27A, – = did not displace 50% 1-NPN at ligand up to 24 μM, read-out: Ki (μM) T27A): > 24 µM; Ki ([7]; mutant V40A, read-out: Ki (μM) V40A): 8.07 ± 0.61 µM; Ki ([8]; mutant L80A, read-out: Ki (μM) L80A): 6.75 ± 0.57 µM |
| CCCCCCCCCC [Decane] | > 24 | > 24 | – |
